PubChem BioAssay (NCI)
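Growth conditions: 96-well plates. Treatment: test compound, 48 hours, 5 concentrations. Analysis: linear interpolation between bracketing concentrations; unreached endpoints set to highest concentration. Here, GI50 denotes the concentration required for 50% inhibition of growth. TGI marks complete inhibition of growth.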

Assays:
Assay in all cases: inhibition of tumour cell growth, NCI panel, 48 h
786-0 renal = test system: 786-0 renal
A498 renal = test system: A498 renal
A549 NSCLC = test system: A549 NSCLC
ACHN renal = test system: ACHN renal
CAKI-1 renal = test system: CAKI-1 renal
CCRF-CEM leukemia = test system: CCRF-CEM leukemia
COLO 205 colon = test system: COLO 205 colon
DLD-1 colon = test system: DLD-1 colon
DMS 114 small cell lung = test system: DMS 114 small cell lung
EKVX NSCLC = test system: EKVX NSCLC
HCC-2998 colon = test system: HCC-2998 colon
HCT-116 colon = test system: HCT-116 colon
HCT-15 colon = test system: HCT-15 colon
HL-60(TB) leukemia = test system: HL-60(TB) leukemia
HOP-18 NSCLC = test system: HOP-18 NSCLC
HOP-62 NSCLC = test system: HOP-62 NSCLC
HOP-92 NSCLC = test system: HOP-92 NSCLC
HT29 colon = test system: HT29 colon
IGROV1 ovarian = test system: IGROV1 ovarian
K-562 leukemia = test system: K-562 leukemia
KM12 colon = test system: KM12 colon
KM20L2 colon = test system: KM20L2 colon
LOX IMVI melanoma = test system: LOX IMVI melanoma
LXFL 529 NSCLC = test system: LXFL 529 NSCLC
M14 melanoma = test system: M14 melanoma
M19-MEL melanoma = test system: M19-MEL melanoma
MALME-3M melanoma = test system: MALME-3M melanoma

`CCC[CH2][Sn]1([CH2]CCC)[O]C(=O)c2cccc(C)c2[O]1` was tested, and the GI50 (786-0 renal) was 1070 nM, the TGI (786-0 renal) was 2260 nM and the GI50 (A498 renal) was 317 nM. The TGI (A498 renal) was 867 nM, the GI50 (A549 NSCLC) was 1460 nM and the TGI (A549 NSCLC) was 2790 nM. The GI50 (ACHN renal) was 551 nM, the TGI (ACHN renal) was 1740 nM and the GI50 (CAKI-1 renal) was 258 nM. The TGI (CAKI-1 renal) was 852 nM, the GI50 (CCRF-CEM leukemia) was 260 nM and the TGI (CCRF-CEM leukemia) was 924 nM. It also gave a GI50 (COLO 205 colon) of 188 nM, a TGI (COLO 205 colon) of 1540 nM and a GI50 (DLD-1 colon) of 722 nM. The TGI (DLD-1 colon) was 2050 nM, the GI50 (DMS 114 small cell lung) was 231 nM and the TGI (DMS 114 small cell lung) was 565 nM. The GI50 (EKVX NSCLC) was 1420 nM, the TGI (EKVX NSCLC) was 2770 nM and the GI50 (HCC-2998 colon) was 1270 nM. For the same compound, the TGI (HCC-2998 colon) was 2600 nM, the GI50 (HCT-116 colon) was 1250 nM and the TGI (HCT-116 colon) was 2500 nM. The GI50 (HCT-15 colon) was 592 nM, the TGI (HCT-15 colon) was 2700 nM and the GI50 (HL-60(TB) leukemia) was 297 nM. It also gave a TGI (HL-60(TB) leukemia) of 1370 nM, a GI50 (HOP-18 NSCLC) of 1080 nM and a TGI (HOP-18 NSCLC) of 2270 nM. It also gave a GI50 (HOP-62 NSCLC) of 2340 nM, a TGI (HOP-62 NSCLC) of 4160 nM and a GI50 (HOP-92 NSCLC) of 1280 nM. The TGI (HOP-92 NSCLC) was 2580 nM, the GI50 (HT29 colon) was 1500 nM and the TGI (HT29 colon) was 2970 nM. It also gave a GI50 (IGROV1 ovarian) of 1350 nM, a TGI (IGROV1 ovarian) of 2720 nM and a GI50 (K-562 leukemia) of 259 nM. The TGI (K-562 leukemia) was 897 nM, the GI50 (KM12 colon) was 1080 nM and the TGI (KM12 colon) was 2360 nM. It also gave a GI50 (KM20L2 colon) of 1350 nM, a TGI (KM20L2 colon) of 2640 nM and a GI50 (LOX IMVI melanoma) of 210 nM. The TGI (LOX IMVI melanoma) was 448 nM, the GI50 (LXFL 529 NSCLC) was 141 nM and the TGI (LXFL 529 NSCLC) was 440 nM. The GI50 (M14 melanoma) was 577 nM, the TGI (M14 melanoma) was 1880 nM and the GI50 (M19-MEL melanoma) was 477 nM. It also gave a TGI (M19-MEL melanoma) of 1690 nM, a GI50 (MALME-3M melanoma) of 441 nM and a TGI (MALME-3M melanoma) of 1550 nM.
